US20130012519A1, “Biomarker Identifying the Reactivation of STAT3 After Src Inhibition” (BRISTOL-MYERS SQUIBB COMPANY, priority 2006, published 2013)
Entries after “also recorded” stand apart in the source; their conditions may differ.

Experiments:
STAT3 [1] = assay: Western blot / Bioplex phosphoprotein assay, STAT3 activation (pY705-STAT3) in cancer cell lines; details: for STAT3 inhibition on addition of JAK inhibitor to dasatinib: JAK inhibitor added to dasatinib; for effect of added inhibitor on STAT3 reactivation by dasatinib: Tu167 cells treated with dasatinib plus the inhibitor; for STAT3 inhibition / re-activation: Tu167 cells treated with one of three SFK inhibitors for 24 hours
[2] = test system: imatinib-resistant BCR-ABL mutants; details: number of mutants out of those tested; Weisberg et al. 2006; cited from earlier work
wild-type BCR-ABL = details: read-out: IC50 against wild-type BCR-ABL; Weisberg et al. 2006; cited from earlier work
c-Src = biological target: T1, c-Src (Homo sapiens, UniProt P12931); assay: Western blot, c-Src inhibition in cancer cell lines; assay type: cell-based; details: Tu167 cells treated with one of three SFK inhibitors for 24 hours
T1 construct: endogenous in cells; host or cells: fifteen human cancer cell lines (HNSCC incl. Tu167, NSCLC, mesothelioma, squamous skin cancer)
T1 sequence (P12931 whole entry): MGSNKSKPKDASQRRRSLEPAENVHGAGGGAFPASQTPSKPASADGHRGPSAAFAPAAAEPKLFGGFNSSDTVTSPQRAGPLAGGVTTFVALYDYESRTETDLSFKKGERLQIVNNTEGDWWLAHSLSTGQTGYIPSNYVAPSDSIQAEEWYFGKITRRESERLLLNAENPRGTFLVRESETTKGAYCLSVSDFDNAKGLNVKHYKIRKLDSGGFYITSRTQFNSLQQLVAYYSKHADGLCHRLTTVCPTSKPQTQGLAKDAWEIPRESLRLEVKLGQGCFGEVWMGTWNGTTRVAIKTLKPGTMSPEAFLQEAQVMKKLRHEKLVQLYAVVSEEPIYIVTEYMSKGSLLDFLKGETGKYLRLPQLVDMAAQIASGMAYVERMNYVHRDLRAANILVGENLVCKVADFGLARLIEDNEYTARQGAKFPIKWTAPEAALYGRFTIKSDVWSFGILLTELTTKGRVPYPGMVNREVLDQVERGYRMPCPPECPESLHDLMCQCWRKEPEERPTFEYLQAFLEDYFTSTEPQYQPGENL

STAT5 = assay: Western blot, STAT5 downstream of Src in cancer cell lines; assay type: cell-based, human
IGF1R = biological target: T2, IGF1R (Homo sapiens, UniProt P08069); assay: IGF1R activation in cells; assay type: cell-based; details: cells treated with dasatinib
T2 construct: endogenous in cells
T2 sequence (P08069 31-1367): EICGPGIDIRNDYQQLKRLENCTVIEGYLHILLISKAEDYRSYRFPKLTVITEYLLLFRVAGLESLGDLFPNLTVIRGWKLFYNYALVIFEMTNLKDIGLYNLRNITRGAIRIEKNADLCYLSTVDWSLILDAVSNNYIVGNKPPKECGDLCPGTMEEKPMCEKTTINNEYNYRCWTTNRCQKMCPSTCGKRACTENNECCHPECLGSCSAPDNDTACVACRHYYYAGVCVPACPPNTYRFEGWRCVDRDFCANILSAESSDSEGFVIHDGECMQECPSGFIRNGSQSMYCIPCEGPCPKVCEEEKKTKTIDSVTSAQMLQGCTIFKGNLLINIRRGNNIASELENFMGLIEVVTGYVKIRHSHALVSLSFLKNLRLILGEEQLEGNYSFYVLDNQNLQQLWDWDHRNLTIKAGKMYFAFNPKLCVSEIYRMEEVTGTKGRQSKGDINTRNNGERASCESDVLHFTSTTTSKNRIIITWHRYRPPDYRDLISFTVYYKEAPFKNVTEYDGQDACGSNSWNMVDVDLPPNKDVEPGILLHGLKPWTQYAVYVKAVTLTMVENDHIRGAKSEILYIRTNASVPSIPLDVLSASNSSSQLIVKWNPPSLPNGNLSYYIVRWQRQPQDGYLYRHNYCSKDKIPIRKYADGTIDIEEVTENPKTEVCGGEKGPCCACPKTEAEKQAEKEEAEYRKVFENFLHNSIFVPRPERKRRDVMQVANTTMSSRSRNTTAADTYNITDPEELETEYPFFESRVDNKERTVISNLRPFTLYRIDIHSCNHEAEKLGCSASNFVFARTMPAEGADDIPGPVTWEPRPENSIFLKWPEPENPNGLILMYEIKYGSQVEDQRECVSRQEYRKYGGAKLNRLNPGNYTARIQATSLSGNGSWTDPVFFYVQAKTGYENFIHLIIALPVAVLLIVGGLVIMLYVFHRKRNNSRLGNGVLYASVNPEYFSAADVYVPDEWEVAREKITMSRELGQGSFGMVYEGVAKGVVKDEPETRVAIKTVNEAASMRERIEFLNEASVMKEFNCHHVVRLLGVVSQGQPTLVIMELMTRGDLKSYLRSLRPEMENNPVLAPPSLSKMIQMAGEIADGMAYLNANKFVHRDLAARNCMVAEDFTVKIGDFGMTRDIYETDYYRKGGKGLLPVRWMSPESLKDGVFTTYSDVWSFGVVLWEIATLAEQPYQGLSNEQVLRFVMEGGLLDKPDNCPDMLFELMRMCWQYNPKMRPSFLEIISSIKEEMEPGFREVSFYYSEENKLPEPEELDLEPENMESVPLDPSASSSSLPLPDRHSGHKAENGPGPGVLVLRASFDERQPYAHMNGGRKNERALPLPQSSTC

AKT = assay: Western blot, AKT downstream of Src in cancer cell lines; assay type: cell-based, human
IL-6 = assay: Cytokine profiling of cell media (25-plex bead kit), IL-6; assay type: cell-based, human; details: 100 nM dasatinib; serum-free and complete medium; 6 and 24 h
FAK = assay: Western blot, FAK downstream of Src in cancer cell lines; assay type: cell-based, human
MAPK [3] = details: HNSCC cells treated with dasatinib; Johnson et al. 2005; cited from earlier work
[4] = test system: 25 human cytokines/chemokines; assay: Cytokine profiling of cell media (25-plex bead kit), other cytokines; assay type: cell-based; details: 100 nM dasatinib; serum-free and complete medium; 6 and 24 h
IL-8 = assay: Cytokine profiling of cell media (25-plex bead kit), IL-8; assay type: cell-based, human; details: 100 nM dasatinib; serum-free and complete medium; 6 and 24 h
[5] = test system: head and neck squamous carcinoma and non-small cell lung cancer cell lines; details: cited from earlier work
STAT3 [6] = details: panel of NSCLC cell lines with mutant or wild-type EGFR; literature; cited from earlier work
MAPK [7] = assay: Western blot, MAPK activation in HNSCC cells; details: Tu167 cells treated with EGF
[8] = Tu167 cells, 100 nM dasatinib for the indicated times
[9] = all fifteen human cancer cell lines, 100 nM dasatinib, 0-24 h

N#C/C(=C/c1ccc(O)c(O)c1)C(=O)NCc1ccccc1 [AG490]
STAT3 inhibition on addition of JAK inhibitor to dasatinib (STAT3 [1]): sustained inhibition of STAT3

Cc1cn(-c2cc(NC(=O)c3ccc(C)c(Nc4nccc(-c5cccnc5)n4)c3)cc(C(F)(F)F)c2)cn1 [AMN107]
imatinib-resistant BCR-ABL mutants against which significantly active [2]: 32/33

COc1cccc(-c2cc(=O)c3ccccc3o2)c1N [PD98059]
effect of added inhibitor on STAT3 reactivation by dasatinib (STAT3 [1]): no effect on STAT3 reactivation

Cc1ccc(-c2nn(C(C)(C)C)c3ncnc(N)c23)cc1 [PP1]
c-Src inhibition (c-Src): durable c-Src inhibition
STAT3 inhibition / re-activation (STAT3 [1]; Western blot): not inhibited at 24 hours

COc1cc(Nc2c(C#N)cnc3cc(OCCCN4CCN(C)CC4)c(OC)cc23)c(Cl)cc1Cl [SKI606]
c-Src inhibition (c-Src): durable c-Src inhibition
STAT3 inhibition / re-activation (STAT3 [1]; Western blot): not inhibited at 24 hours

Cc1nc(Nc2ncc(C(=O)Nc3c(C)cccc3Cl)s2)cc(N2CCN(CCO)CC2)n1 [dasatinib, N-(2-chloro-6-methylphenyl)-2-[[6-[4-(2-hydroxyethyl)-1-piperazinyl]-2-methyl-4-pyrimidinyl]amino]-5-thiazolecarboxamide]
STATS inhibition (STAT5; [8]): durable inhibition
STATS inhibition (STAT5; [9]): rapidly and durably inhibited
IGF1R activation (IGF1R): nor did dasatinib affect IGF1R activation
AKT inhibition (AKT; [8]): durable inhibition
AKT inhibition (AKT; [9]): rapidly and durably inhibited
STAT3 activation (pSTAT3) (STAT3 [1]; 14 of 15 solid tumor cell lines (HNSCC, NSCLC, mesothelioma, squamous skin carcinoma), 100 nM dasatinib, 0-24 h, Western blot): intitally inhibited but levels of pSTAT3 (Y105) returned to or above baseline by 24 h; also recorded: initially inhibited but reactivated by 24 h
STAT3 inhibition / re-activation (STAT3 [1]; Western blot): not inhibited at 24 hours
STAT3 inhibition (STAT3 [1]; Tu167 cells, 100 nM dasatinib for the indicated times, Western blot): not durably inhibited
STAT3 activation in fresh cells by conditioned medium (STAT3 [1]; conditioned medium from Tu167 cells treated with dasatinib for 24 h transferred to fresh cells): did not observe any STAT3 activation
IL-6 production (IL-6): decreased
FAK inhibition (FAK; [8]): durable inhibition
FAK inhibition (FAK; [9]): rapidly and durably inhibited
MAPK activation (MAPK [3]): transiently activated
increase of any of 25 cytokines / growth factors assayed [4]: No cytokine or growth factor assayed was significantly increased
production of IL-1beta, IL-12p40, IL-15, TNF-alpha, interferon-alpha, inducible protein-10, MIG, RANTES, IL-10 [4]: unaffected
IL-8 production (IL-8): decreased
effects in cancer cell lines [5]: cytotoxicity, cell cycle arrest and apoptosis
effect of SFK inhibition on STAT3 activation (STAT3 [6]): modest to absent

C#Cc1cccc(Nc2ncnc3cc(OCCOC)c(OCCOC)cc23)c1 [erlotinib]
effect of added inhibitor on STAT3 reactivation by dasatinib (STAT3 [1]): did not affect the STAT3 reactivation

CC(C)(C)c1nc2c3cc[nH]c(=O)c3c3cc(F)ccc3c2[nH]1 [pyridone 6]
STAT3 inhibition on addition of JAK inhibitor to dasatinib (STAT3 [1]): sustained inhibition of STAT3

EGF: epidermal growth factor, used to stimulate cells (NSDSECPLSHDGYCLHDGVCMYIEALDKYACNCVVGYIGERCQYRDLKWWELR; UniProt P01133 971-1023, looked up)
STAT3 activation on stimulation (STAT3 [1]; Tu167 cells treated with EGF): slight increase in STAT3 activation
MAPK activation on stimulation (MAPK [7]): markedly activated

insulin-like growth factor
STAT3 activation on stimulation (STAT3 [1]; stimulation of cells with insulin-like growth factor): did not lead to significant activation of STAT3
